Counter-ions that a name gives are not always drawn.
Biological target: T1, human recombinant CD38 enzyme (Homo sapiens, UniProt P28907)
T1 construct: purchased R&D Systems H7006
T1 sequence (P28907 1-300): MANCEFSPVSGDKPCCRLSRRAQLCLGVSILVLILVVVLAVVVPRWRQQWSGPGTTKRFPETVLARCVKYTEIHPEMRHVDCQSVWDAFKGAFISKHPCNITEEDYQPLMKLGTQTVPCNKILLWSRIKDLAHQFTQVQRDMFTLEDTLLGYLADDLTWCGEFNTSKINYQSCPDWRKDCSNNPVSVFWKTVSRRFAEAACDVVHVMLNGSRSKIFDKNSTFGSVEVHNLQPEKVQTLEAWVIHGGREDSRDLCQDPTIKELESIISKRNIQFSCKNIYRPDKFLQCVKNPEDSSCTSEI
Test: Human recombinant enzyme assay (fluorimetric CD38 enzyme assay, ε-NAD substrate)
Assay type: biochemical
Details: recombinant CD38 100 ng/ml, ε-NAD 100 µM, pH = 6.0, 37°C, reaction time 30 min; read-out: IC50 (nM) ENAD
Description: Enzyme assay on human recombinant CD38 enzyme were performed in order to determine the in vitro potency of the newly synthesized compounds. IC50 values were determined for the test compounds and used to explore the structure-activity relationships (SAR).
N6-etheno-NAD (ε-NAD), a NAD analogue previously shown to be a convenient substrate of CD38 enzyme activity (Graeff et al. J. Biol. Chem. 269, pp 30260-30367, […]) was used to measure the activity of human recombinant CD38 and cell surface enzyme activity.
A fluorimetric CD38 enzyme assay was performed as described by Graeff et al. The reaction was started with 10 µl of N6-etheno-NAD (ε-NAD) substrate, final concentration 100 µM, in a final volume of 0.1 ml buffered with 50 mM HEPES, 0.05% BRIJ, pH = 6.0 containing 100 ng/ml recombinant CD38 (R&D Systems, H7006). Cleavage of ε-NAD, which causes a 10-fold fluorescence enhancement, was continuously followed at 37°C in a BMG Polarstar spectrofluorometer at an emission wavelength of 410 nm and an excitation of 300 nm, reaction time was 30 min. NADase activity was expressed as Δ relative fluorescence/min. The rate of enzyme reactions were compared in the presence and absence of inhibitor molecule, the IC50 values were calculated with Biostat Speed program.

In order of rising IC50:
1. O=C1N/C(=C\c2ccncc2)C(=O)N1c1ccc(F)cc1 [Compound 12, 3-(4-Fluoro-phenyl)-5-[1-pyridin-4-yl-meth-(2)-ylidene]-imidazolidine-2,4-dione]  16 nM
2. O=C1N/C(=C\c2ccncc2)C(=O)N1CC1(CO)CCCC1 [Compound 64, 3-(1-Hydroxymethyl-cyclopentylmethyl)-5-[1-pyridin-4-yl-meth-(Z)-ylidene]-imidazolidine-2,4-dione]  16 nM
3. O=C1N/C(=C\c2ccncc2)C(=O)N1c1ccc(Br)cc1 [Compound 20, 3-(4-Bromo-phenyl)-5-[1-pyridin-4-yl-meth-(Z)-ylidene]-imidazolidine-2,4-dione]  20 nM
4. CC(C)(O)CCN1C(=O)N/C(=C\c2ccncc2)C1=O [Compound 57, 3-(3-Hydroxy-3-methyl-butyl)-5-[1-pyridin-4-yl-meth-(Z)-ylidene] -imidazolidine-2,4-dione]  20 nM
5. CC(=O)c1ccc(N2C(=O)N/C(=C\c3ccncc3)C2=O)cc1 [Compound 23, 3-(4-Acetyl-phenyl)-5-[1-pyridin-4-yl-meth-(Z)-ylidene]-imidazolidine-2,4-dione]  26 nM
6. CC(=O)c1cccc(N2C(=O)N/C(=C\c3ccncc3)C2=O)c1 [Compound 13, 3-(3-Acetyl-phenyl)-5-[1-pyridin-4-yl-meth-(Z)-ylidene]-imidazolidine-2,4-dione]  30 nM
7. O=C1N/C(=C\c2ccncc2)C(=O)N1c1ccccc1 [Compound 1, 3-Phenyl-5-[1-pyridin-4-yl-meth-(Z)-ylidene]-imidazolidine-2,4-dione.HCl salt]  30 nM
8. Cc1ccc(N2C(=O)N/C(=C\c3ccncc3)C2=O)cc1 [Compound 19, 5-[1-Pyndin-4-yl-meth-(Z)-ylidene]-3-p-totyl-imidazolidine-2,4-dione]  30 nM
9. N#Cc1ccc(N2C(=O)N/C(=C\c3ccncc3)C2=O)cc1 [Compound 11, 4-{2,5-Dioxo-4-[1-pyridin-4-yl-meth-(Z)-ylidene]-imidazolidin-1-yl} -benzonitrile]  30 nM
10. O=C1N/C(=C\c2ccncc2)C(=O)N1c1ccc(F)c(F)c1 [Compound 10, 3-(3,4-Difluoro-phenyl)-5-[1-pyridin-4-yl-meth-(Z)-ylidene]-imidazolidine-2,4-dione]  30 nM
11. C[C@@H]1CN(C(=O)c2ccc(N3C(=O)N/C(=C\c4ccncc4)C3=O)cc2)C[C@H](C)O1 [Compound 45, 3-[4-((2R,6S)-2,6-Dimethyl-morpholine-4-carbonyl)-phenyl]-5-[1-pyridin-4-yl-meth-(Z)-ylidene]-imidazolidine-2,4-dione]  34 nM
12. CCOC(=O)C1CCN(C(=O)c2ccc(N3C(=O)N/C(=C\c4ccncc4)C3=O)cc2)CC1 [Compound 54, 1-(4-{2,5-Dioxo-4-[1-pyridin-4-yl-meth-(Z)-ylidene]-imidazotidin-l-yl}-benzoyl)-piperidine-4-carboxylic acid ethyl ester]  36 nM
13. CC(C)N1C(=O)N/C(=C\c2ccncc2)C1=O [Compound 21, 3-Isopropyl-5-[1-pyridin-4-yl-meth-(Z)-ylidene]-imidazolidine-2,4-dione]  40 nM
14. O=C1N/C(=C\c2ccncc2)C(=O)N1c1ccc(C(F)(F)F)cc1 [Compound 31, 5-[1-Pyridin-4-yl-meth-(Z)-ylidene]-3-(4-trifluoromethyl-phenyl)-imidazolidine-2,4-dione]  43 nM
15. O=C1N/C(=C\c2ccncc2)C(=O)N1c1cccc(Cl)c1 [Compound 5, 3-(3-Chloro-phenyl)-5-[1-pyridin-4-yl-meth-(Z)-ylidene]-imidazolidine-2,4-dione HCl-salt]  50 nM
16. O=C1N/C(=C\c2ccncc2)C(=O)N1c1ccc(Cl)c(Cl)c1 [Compound 6, 3-(3,4-Dichloro-phenyl)-5-[1-pyridin-4-yl-meth-(Z)-ylidene]-imidazolidine-2,4-dione]  50 nM
17. O=C(NC1CCCC1)c1ccc(N2C(=O)N/C(=C\c3ccncc3)C2=O)cc1 [Compound 49, N-Cyclopentyl-4-{2,5-dioxo-4-[1-pyridm-4-yl-meth-(Z)-ylidene]-imidazolidm-1-yl}-benzamide]  50 nM
18. O=C(c1ccc(N2C(=O)N/C(=C\c3ccncc3)C2=O)cc1)N1CCOCC1 [Compound 29, 3-[4-(Morpholine-4-carbonyl)-phenyl]-5-[1-pyridin-4-yl-meth-(Z)-ylidene]-imidazolidine-2,4-dione]  51 nM
19. COc1ccc(N2C(=O)N/C(=C\c3ccncc3)C2=O)cc1 [Compound 17, 3-(4-Methoxy-phenyl)-5-[1-pyridin-4-yl-meth-(Z)-ylidene]-imidazolidine-2,4-dione]  55 nM
20. O=C(O)c1cccc(N2C(=O)N/C(=C\c3ccncc3)C2=O)c1 [Compound 27, 3-{2,5-Dioxo-4-[1-pyridin-4-yl-meth-(Z)-ylidene]-imidazolidin-1-yl}-benzoic acid]  56 nM
21. C[S+]([O-])c1ccc(N2C(=O)N/C(=C\c3ccncc3)C2=O)cc1 (stereo not drawn) [Compound 25, 3-(4-Methanesulfinyl-phenyl)-5-[1-pyridin-4-yl-meth-(Z)-ylidene]-imidazolidine-2,4-dione]  60 nM
22. O=C1N/C(=C\c2ccncc2)C(=O)N1CCc1ccccc1 [Compound 18, 3-Phenethyl-5-[1-pyridin-4-yl-meth-(Z)-ylidene]-imidazolidine-2,4-dione]  60 nM
23. CCc1ccc(N2C(=O)N/C(=C\c3ccncc3)C2=O)cc1 [Compound 4, 3-(4-Ethyl-phenyl)-5-[1-pyridin-4-yl-meth-(Z)-ylidene]-imidazolidine-2,4-dione]  60 nM
24. O=C1N/C(=C\c2ccncc2)C(=O)N1c1cccnc1 [Compound 39, 3-Pyridin-3-yl-5-[1-pyridin-4-yl-meth-(Z)-ylidene]-imidazolidine-2,4-dione]  61 nM
25. O=C(NC1CCCCC1)c1ccc(N2C(=O)N/C(=C\c3ccncc3)C2=O)cc1 [Compound 51, N-Cyclohexyl-4-{2,5-dioxo-4-[1-pyndin-4-yl-meth-(Z)-ylidene]-imidazolidin-1-yl}-benzamide]  63 nM
26. O=C(NCCN1CCOCC1)c1cccc(N2C(=O)N/C(=C\c3ccncc3)C2=O)c1 [Compound 34, 3-{2,5-Dioxo-4-[1-pyridin-4-yl-meth-(Z)-ylidene]-imidazolidin-1-yl}-N-(2-morpholin-4-yl-ethyl)-benzamide]  65 nM
27. CC1CCN(C(=O)c2ccc(N3C(=O)N/C(=C\c4ccncc4)C3=O)cc2)CC1 [Compound 47, 3-[4-(4-Methyl-piperidine-1-carbonyl)-phenyl]-5-[1-pyridin-4-yl-meth-(Z)-ylidene]-imidazolidine-2,4-dione]  74 nM
28. CCCN1C(=O)N/C(=C\c2ccncc2)C1=O [Compound 41, 3-Propyl-5-[1-pyridin-4-yl-meth-(Z)-ylidene]-imidazolidine-2,4-dione]  80 nM
29. CN(C)c1ccc(N2C(=O)N/C(=C\c3ccncc3)C2=O)cc1 [Compound 14, 3-(4-Dimethylamino-phenyl)-5-[1-pyridin-4-yl-meth-(Z)-ylidene]-imidazolidine-2,4-dione]  90 nM
30. CC(C)(C)c1ccc(N2C(=O)N/C(=C\c3ccncc3)C2=O)cc1 [Compound 35, 3-(4-tert-Butyl-phenyl)-5-[1-pyridin-4-yl-meth-(Z)-ylidene]-imidazolidine-2,4-dione]  100 nM
31. O=C1N/C(=C\c2ccncc2)C(=O)N1C1CCC(O)CC1 (stereo not drawn) [Compound 40, 3-(4-Hydroxy-cyclohexyl)-5-[1-pyridin-4-yl-meth-(Z)-ylidene]-imidazolidine-2,4-dione]  214 nM
32. CCOC(=O)CN1C(=O)N/C(=C\c2ccncc2)C1=O [Compound 43, {2,5-Dioxo-4-[1-pyridin-4-yl-meth-(Z)-ylidene]-imidazolidin-1-yl}-acetic acid ethyl ester]  224 nM
33. O=C1N/C(=C\c2ccncc2)C(=O)N1CCNC(=O)C(F)(F)F [Compound 65, N-(2-{2,5-Dioxo-4-[1-pyridin-4-yl-meth-(Z)-ylidene]-imidazolidin-1-yl}-ethyl)-2,2,2-trifluoro-acetamide]  240 nM
34. O=C1N/C(=C\c2ccncc2)C(=O)N1CCN1CCCC1 [Compound 37, 5-[1-Pyridin-4-yl-meth-(Z)-ylidene]-3-(2-pyrrolidin-1-yl-ethyl)-imidazolidine-2,4-dione]  290 nM
35. O=C1N/C(=C\c2ccncc2)C(=O)N1C1CCCCC1 [Compound 9, 3-Cyclohexyl-5-[1-pyridin-4-yl-meth-(Z)-ylidene]-imidazolidine-2,4-dione]  292 nM
36. O=C1N/C(=C\c2ccncc2)C(=O)N1C12CC3CC(CC(C3)C1)C2 [Compound 38, 3-Adamantan-1-yl-5-[1-pyridin-4-yl-meth-(Z)-ylidene]-imidazolidine-2,4-dione]  400 nM

Reference: EP2801573A1, “Hydantoine derivatives as CD38 inhibitors” (SANOFI, priority 2013, dated 2014)
